IC50, EC50 and AC50 data for 33 molecules are collected here from ChEMBL document CHEMBL1201862, “PubChem BioAssay data set” (2004).

Usually IC50 stands for the midpoint of a concentration-inhibition curve. One may read the EC50 as the midpoint of the concentration-response curve. One may read the AC50 as the concentration giving half of the maximal activity seen.

Assay [1] has as its target T1, Rac GTPase-activating protein 1 (Homo sapiens, UniProt Q9H0H5).
T1 sequence (Q9H0H5 whole entry): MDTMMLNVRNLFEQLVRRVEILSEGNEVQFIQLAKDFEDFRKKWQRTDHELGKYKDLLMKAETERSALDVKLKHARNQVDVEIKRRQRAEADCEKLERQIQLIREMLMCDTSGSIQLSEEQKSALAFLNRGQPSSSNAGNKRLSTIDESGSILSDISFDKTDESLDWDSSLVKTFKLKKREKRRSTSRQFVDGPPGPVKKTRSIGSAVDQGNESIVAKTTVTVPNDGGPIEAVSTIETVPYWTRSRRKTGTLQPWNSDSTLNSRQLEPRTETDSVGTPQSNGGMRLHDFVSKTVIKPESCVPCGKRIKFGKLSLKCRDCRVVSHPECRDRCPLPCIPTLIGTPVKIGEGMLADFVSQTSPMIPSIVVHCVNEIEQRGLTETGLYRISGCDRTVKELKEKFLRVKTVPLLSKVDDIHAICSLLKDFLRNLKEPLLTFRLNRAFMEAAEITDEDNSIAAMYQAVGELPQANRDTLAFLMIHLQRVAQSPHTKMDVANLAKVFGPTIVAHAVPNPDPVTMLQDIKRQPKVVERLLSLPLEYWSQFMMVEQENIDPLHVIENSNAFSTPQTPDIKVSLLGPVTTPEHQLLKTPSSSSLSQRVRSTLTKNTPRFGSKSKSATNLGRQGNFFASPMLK
In words: MgcRacGAP GTPase-activating activity inhibitors, confirmation, biochemical, ADP Hunter fluorescence, primary and confirmatory (AID 624330). The class given is functional.

Assay [2] in a line: Luminescence Cell-Based Dose Confirmation HTS to Identify Activators of 5'UTR Stem-Loop Driven Alpha-Synuclein mRNA Translation in H4 Neuroglioblastoma Cells. [Related pubchem assays: 1829 (Project Summary), 1814 (Primary HTS)]. The class given is functional.
Assay [3] concerns H4. In words: Luminescence Cell-Based Dose Response HTS to Identify Activators of 5'UTR Stem-Loop Driven Prion Protein mRNA Translation in H4 Neuroglioblastoma Cells. [Related pubchem assays: 1829 (Project Summary), 1814 (Primary HTS)]. Type of assay: functional. Particulars: Homo sapiens.
Assay [4] in a line: Luminescence Cell-Based Dose Response HTS to Identify Activators of Luciferase Translation or Activity in H4 […] Cells. [Related pubchem assays: 1829 (Project Summary), 1814 (Primary HTS)]. Type of assay: functional.
For assay [5], the target named is Paired box protein Pax-8 (Homo sapiens, UniProt Q06710). In words: inhibitors of PAX8-driven TPO luciferase reporter, dose response, RMG-I cells, cherry-pick (AID 687027).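 Also: luciferase reporter driven by Pax8 target thyroperoxidase promoter measured by SteadyGlo luminescence.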 Type of assay: functional, cell-based. In general terms: In a reporter assay the amount or activity of a reporter protein is the signal.
Sequence of Paired box protein Pax-8 (Q06710 whole entry): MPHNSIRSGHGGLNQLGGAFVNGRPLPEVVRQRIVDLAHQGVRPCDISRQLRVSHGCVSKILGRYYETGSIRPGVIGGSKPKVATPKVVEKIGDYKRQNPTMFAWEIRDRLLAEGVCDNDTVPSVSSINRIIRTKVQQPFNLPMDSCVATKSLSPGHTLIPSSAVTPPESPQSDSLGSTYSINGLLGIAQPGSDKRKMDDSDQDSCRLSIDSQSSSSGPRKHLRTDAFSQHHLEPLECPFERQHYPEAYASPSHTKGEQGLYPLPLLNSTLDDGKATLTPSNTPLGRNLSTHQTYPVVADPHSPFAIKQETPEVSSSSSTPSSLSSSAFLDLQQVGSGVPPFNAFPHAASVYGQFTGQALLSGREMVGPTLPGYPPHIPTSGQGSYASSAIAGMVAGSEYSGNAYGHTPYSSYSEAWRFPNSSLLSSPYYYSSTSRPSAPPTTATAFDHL
In assay [6] the test system is Streptococcus sp. 'group A'. In words: growth inhibition of control SK(-) GAS strain, dose response, counter-screen for streptokinase expression inhibitor project, luminescence, kanamycin, BacTiterGlo, confirmation (AID 1900). The class given is functional, organism-based.
Assay [7] addresses Cytochrome P450 3A4 (Homo sapiens, UniProt P08684).
Assay [8] deals with Streptococcus. In words: Group A Streptococcus viability loss, dose response, counter-screen for streptokinase expression inhibitor project, luminescence, BacTiterGlo (AID 1915).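 Also: potency for reduction of bacterial viability or growth.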 Type of assay: functional, organism-based. For orientation: The purpose of a counterscreen is to sort out artefacts and off-target activity.
Assay [9] relates to INS1. In words: beta cell apoptosis inhibitors, cytokine rescue, dose response, luminescence, retest (AID 449756).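 Also: cell death triggered by IL-1 beta plus TNF-alpha plus IFN-gamma mixture; protective hits raise ATP signal compared with cytokine alone wells.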 Type of assay: functional, cell-based. Particulars: Rattus norvegicus.
For assay [10], the target named is T2, Streptokinase A (Streptococcus pyogenes serotype M1, UniProt P10520).
T2 sequence (P10520 whole entry): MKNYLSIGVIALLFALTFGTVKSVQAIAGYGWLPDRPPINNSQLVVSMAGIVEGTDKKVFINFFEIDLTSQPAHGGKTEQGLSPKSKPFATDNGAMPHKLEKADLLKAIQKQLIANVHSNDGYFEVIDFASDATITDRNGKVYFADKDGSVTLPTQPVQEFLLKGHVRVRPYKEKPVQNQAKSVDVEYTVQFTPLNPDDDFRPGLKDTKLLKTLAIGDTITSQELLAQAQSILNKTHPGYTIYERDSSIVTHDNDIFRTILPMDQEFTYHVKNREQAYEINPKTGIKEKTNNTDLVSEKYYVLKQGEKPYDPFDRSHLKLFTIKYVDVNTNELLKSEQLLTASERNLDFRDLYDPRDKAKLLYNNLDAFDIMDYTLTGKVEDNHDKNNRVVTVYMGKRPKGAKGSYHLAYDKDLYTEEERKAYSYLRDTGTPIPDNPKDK
In words: S. pyogenes streptokinase expression inhibitors, potency, dose response, plasminogen activation absorbance, OD405 (AID 1914).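 Also: secreted streptokinase activity via plasminogen activation per viability signal from cell pellet.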 Type of assay: functional, Streptococcus pyogenes M1 GAS.

Assay [11] is described as follows: NIH-3T3 fibroblast cytotoxicity, dose response, cytotoxicity control, cell-based, fluorescence, Alamar Blue, secondary assay (AID 2327).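 Also: NIH-3T3 mouse fibroblasts cultured with fluconazole at 8 µg/mL.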 Type of assay: functional. In general terms: Resazurin is reduced to fluorescent resorufin, in cell work by metabolically active cells.
Assay [12] in a line: C. albicans growth with fluconazole, confirmation, fluorescence, retest (AID 2467). The class given is functional, cell-based.
Assay [13] concerns the target T3, Cytochrome P450 1A2 (Homo sapiens, UniProt P05177).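 Also: PubChem cytochrome P450 panel assay, CYP1A2 panel member.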
T3 sequence (P05177 whole entry): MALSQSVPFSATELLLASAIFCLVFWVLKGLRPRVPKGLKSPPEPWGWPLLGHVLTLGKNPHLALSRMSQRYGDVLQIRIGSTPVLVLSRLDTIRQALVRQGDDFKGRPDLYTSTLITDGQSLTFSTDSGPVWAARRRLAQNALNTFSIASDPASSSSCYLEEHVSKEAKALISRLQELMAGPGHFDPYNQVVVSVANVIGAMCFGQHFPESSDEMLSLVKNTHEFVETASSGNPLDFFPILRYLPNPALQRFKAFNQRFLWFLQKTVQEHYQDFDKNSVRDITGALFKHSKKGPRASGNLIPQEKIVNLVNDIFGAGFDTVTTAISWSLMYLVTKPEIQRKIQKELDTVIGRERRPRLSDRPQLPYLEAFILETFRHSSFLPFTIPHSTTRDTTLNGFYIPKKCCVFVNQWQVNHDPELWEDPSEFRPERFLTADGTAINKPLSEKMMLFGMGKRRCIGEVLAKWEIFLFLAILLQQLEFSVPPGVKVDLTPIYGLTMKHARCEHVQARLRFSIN

Assay [14] deals with Cytochrome P450 2D6 (Homo sapiens, UniProt P10635).
Sequence of Cytochrome P450 2D6 (P10635 whole entry): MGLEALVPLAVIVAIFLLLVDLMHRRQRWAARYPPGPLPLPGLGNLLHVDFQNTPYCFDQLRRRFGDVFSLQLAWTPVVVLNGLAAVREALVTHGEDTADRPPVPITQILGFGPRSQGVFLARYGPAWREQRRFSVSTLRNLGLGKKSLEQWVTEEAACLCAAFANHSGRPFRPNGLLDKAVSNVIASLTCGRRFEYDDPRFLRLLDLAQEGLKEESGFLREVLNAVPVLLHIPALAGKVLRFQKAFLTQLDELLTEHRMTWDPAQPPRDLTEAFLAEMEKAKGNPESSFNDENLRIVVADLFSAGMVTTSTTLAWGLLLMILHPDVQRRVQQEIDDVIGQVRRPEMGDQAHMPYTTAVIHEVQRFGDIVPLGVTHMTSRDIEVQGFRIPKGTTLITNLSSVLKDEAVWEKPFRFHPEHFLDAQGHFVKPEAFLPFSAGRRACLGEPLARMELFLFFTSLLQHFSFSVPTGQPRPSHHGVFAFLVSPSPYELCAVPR

Each structure is given as a SMILES string. Active and inactive are the calls of the source. Rule as the data show it, for most assays here: actives have a measured EC50 and inactives only a lower limit. Bounds are passed on as bounds.

Sequence of Cytochrome P450 3A4 (P08684 whole entry): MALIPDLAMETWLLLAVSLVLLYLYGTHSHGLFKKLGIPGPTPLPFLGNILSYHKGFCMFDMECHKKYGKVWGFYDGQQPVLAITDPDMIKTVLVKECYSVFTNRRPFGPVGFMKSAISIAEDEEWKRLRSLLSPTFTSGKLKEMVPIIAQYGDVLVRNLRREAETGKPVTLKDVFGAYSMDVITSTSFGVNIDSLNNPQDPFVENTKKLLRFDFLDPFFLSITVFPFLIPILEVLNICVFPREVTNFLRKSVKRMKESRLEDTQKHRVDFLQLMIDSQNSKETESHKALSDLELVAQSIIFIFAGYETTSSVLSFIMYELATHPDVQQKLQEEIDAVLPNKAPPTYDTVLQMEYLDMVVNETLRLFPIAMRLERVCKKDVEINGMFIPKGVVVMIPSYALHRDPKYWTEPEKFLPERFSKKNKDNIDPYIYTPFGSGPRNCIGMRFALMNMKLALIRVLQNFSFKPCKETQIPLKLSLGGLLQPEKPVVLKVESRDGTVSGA

With `COc1cc(/C=C2/C(=N)N3C=C(C)SC3=NC2=O)ccc1O`, the half-maximal inhibitory concentration (IC50) in assay [1] was 71.9 µM (active).

As for `Cc1c(C(=O)Nc2ccccc2)sc2nc(-c3ccccc3)cn12`, the EC50 in assay [2] is 4.41 µM (active); in assay [3], 44.2 µM (active); in [4] it was 6.59 µM (active).

As for `COCCCn1c(=S)[nH]c2sc3c(c2c1=O)CCCC3`, in [1], the IC50 was 32.9 µM (active).

Turning to `Oc1ccc(Cc2ccccc2)c2cccnc12`, in [5], the AC50 was 4.48 µM (active).

As to `C[C@@H]1CCCCO[C@H](CN(C)S(=O)(=O)c2ccc(Cl)cc2)[C@H](C)CN([C@@H](C)CO)C(=O)c2cc(NS(=O)(=O)c3ccc(F)cc3)ccc2O1`, the concentration at half-maximal activity (AC50) in assay [5] was 4.33 µM (active).

For the molecule `Cc1ccc(C2NNC(=O)C2NC(=O)c2ccccc2)cc1` (stereo not drawn), the values for the EC50 in [2], in assay [3] and in [4] were 11.3 µM (active), 48.6 µM (active) and 9.08 µM (active), respectively.

Regarding `FC(F)(F)c1cccc(-c2nc3nc(Cl)c(Cl)nc3[nH]2)c1`, the EC50 is 7.96 µM (active) in assay [6], 94.8 µM (active) in assay [8] and > 150 µM (not active) in assay [10]. Also, the values for the AC50 in assay [7] and in assay [9] were 5.01 µM (inconclusive) and 3.23 µM (active), respectively.

`O=[N+]([O-])c1ccccc1N/N=C1\CCc2ccccc21`: the EC50 was 2.24 µM (active) in [3] and 0.268 µM (active) in assay [4].

As to `O=C(Nc1ccc2c(c1)OCCO2)NC12CC3CC(CC(C3)C1)C2`, the EC50 in [2] was 5.22 µM (active); in assay [3], > 120 µM (not active); in assay [4] it was 0.516 µM (active).

Consider `CN1C(=O)/C(=C/c2cn(CC(=O)N3CCCCC3)c3ccccc23)NC1=S`, for which the EC50 was > 150 µM (inactive) in [11] and > 38 µM (not active) in assay [12].

Regarding `COc1cc2c(CCNC(C)=O)c[nH]c2cc1O`, the figures for the AC50 in assay [7], in assay [13] and in assay [14] were 15.8 µM (inconclusive), 31.6 µM (inconclusive) and 39.8 µM (inconclusive), respectively. Also, in assay [1], the IC50 was 52.3 µM (active).

Regarding `CSc1nc2nccc(/C=C\c3ccccc3)n2n1`, the EC50 in assay [2], in assay [3] and in [4] was > 120 µM (not active) in each case.

Consider `O=C1C2CCN(CC2)C1Cc1ccc(OCc2ccccc2)cc1` (stereo not drawn), for which the half-maximal effective concentration (EC50) in assay [11] was 24 µM (inconclusive); in assay [12], 2.41 µM (active).

Take `Cc1cc(C)n2nc(Nc3ccccc3)cc2n1`: the EC50 in [2] was 6.86 µM (active); in assay [4], 15.8 µM (active).

Consider `COC(=O)c1c(-c2cccs2)csc1NC(=O)c1cccnc1`, for which the EC50 in [11] was > 160 µM (inactive); in assay [12], 2.49 µM (active).

With `COc1cc(/C=C/C(=O)OCC(=O)NC(=O)NC(C)(C)C)ccc1O`, the IC50 in assay [1] was 57.5 µM (active).

In the case of `C=CCOc1ccccc1CN1CCCN(C)CC1`, the 50% inhibitory concentration (IC50) in assay [1] is 178 µM (active).

On to `COc1ccccc1-c1ccc2c(c1)O[C@H](CN(C)Cc1ccc3c(c1)OCO3)[C@H](C)CN([C@@H](C)CO)S2(=O)=O`, for which the concentration at half-maximal activity (AC50) in assay [5] was 13.5 µM (active).

With `O=C(/C=C/c1ccc(S(=O)(=O)NCc2ccco2)cc1)NCc1ccccc1Cl`, the EC50 in assay [2] was > 120 µM (not active); in assay [3] it was 16.4 µM (active); in assay [4] it was > 120 µM (not active).

Turning to `CCc1nnc(NC(=O)CSc2nc3c(cc2C#N)CCC3)s1`, the results for the EC50 in [3] and in assay [4] were > 120 µM (not active) and 0.131 µM (active), respectively.

Take `CCc1cc2c(=O)c(-c3nc4ccccc4n3C)c(COCC(=O)O)oc2cc1O`: the EC50 in assay [2], in assay [3] and in [4] was > 120 µM (not active) each time.

Regarding `O=C(COc1ccc2c(c1)CCC2)NCc1cccc(Cl)c1`, the concentration giving a half-maximal response (EC50) in assay [11] was > 160 µM (inconclusive); in [12], > 38 µM (not active).

Consider `CC(=O)N1CCC(=NNc2nc3ccccc3s2)CC1`, for which the figures for the EC50 in assay [11] and in assay [12] were > 160 µM (inactive) and > 38 µM (not active), respectively.

On to `Oc1ccc(C[C@H]2CNC(=S)N2CC2CCCN2C[C@H](Cc2ccc(O)cc2)N2C[C@H](Cc3ccc(O)cc3)N(CC3CCCCCC3)C2=S)cc1` (stereo partly drawn), for which the AC50 in assay [5] is 5.35 µM (active).

In the case of `N#Cc1c(Cl)nsc1NC(=O)c1ccccc1`, the EC50 was 22.2 µM (active) in [11] and 0.626 µM (active) in assay [12]. Besides, the half-maximal activity concentration (AC50) in assay [9] is 3.29 µM (active).

For the molecule `C[C@H]1CCCCO[C@@H](CN(C)C(=O)c2ccccc2)[C@@H](C)CN([C@@H](C)CO)C(=O)c2cc(NC(=O)Nc3ccc(C(F)(F)F)cc3)ccc2O1`, the AC50 in assay [5] is 3.76 µM (active).

Turning to `Cc1ccc(C(=O)Cn2ncsc2=N)cc1`, the EC50 in [2] is 13.5 µM (active); in [4] it was 16.8 µM (active).

In the case of `COCC1CCN(C(=O)CCc2nnc(C3(c4ccc(Cl)cc4)CCC3)o2)C1` (stereo not drawn), the EC50 in assay [6], in assay [8] and in assay [10] was > 150 µM (not active) throughout.

`COc1cc(OC)c([C@H]2C=C(C)[C@H]3C[C@@H]2C3(C)C)c(OC)c1`: the EC50 is 4.7 µM (active) in assay [6], 9.95 µM (active) in assay [8] and 63.3 µM (active) in [10].

Turning to `CCOc1cccc(-c2cc(-c3nnc(S)n3CC)c3ccccc3n2)c1`, the EC50 was > 160 µM (inactive) in [11] and 4.13 µM (active) in assay [12].

In the case of `C=CCNc1ncnc2c1[nH]c1ccc(Cl)cc12`, the EC50 is 89.5 µM (active) in assay [2] and 43 µM (active) in [4].

`O=C(CNC(=O)c1cn2ccccc2n1)Nc1ccc(F)c(F)c1`: the EC50 in assay [2] was 0.453 µM (active); in assay [3] it was > 120 µM (not active); in assay [4], 45.5 µM (active).

As for `COC(=O)C1(Cc2cc(-c3ccccc3)no2)CCN(C(=O)OC(C)(C)C)CC1`, the figures for the 50% effective concentration (EC50) in assay [2], in [3] and in assay [4] were 9.17 µM (active), 55.7 µM (active) and 49.6 µM (active), respectively.
